According to ChEMBL document CHEMBL3885861, “Open TG-GATES”:

Organism: Rattus norvegicus
Experiment: Open TG-GATES - Regimen: Daily Repeat
Format: toxicity, organism-based, Sprague-Dawley
Design: regimen Daily Repeat, gender Male, age 6 weeks
Settings: in vivo, po, 4000 mg/kg, route gavage, dose level High; for APTT / Bas / Eos / Fbg / Hb / Ht / Lym / MCH / MCHC / MCV / Mono / Neu / PT / Plat / RBC / Ret / WBC: tissue Blood; for KIDNEY_L / KIDNEY_R / KIDNEY_TOTAL: tissue Kidney; for LIVER: tissue Liver; for A/G / ALP / ALT / AST / BUN / CRE / Ca / Cl / DBIL / GLC / IP / K / LDH / Na / PL / RALB / TBIL / TC / TG / TP / gamma-GTP: tissue Plasma

SMILES: CCO [ALCOHOL]
- TERMINAL_BW (72 h, time 3 day): 222.6 g
- APTT (72 h, time 3 day): 17.5 s
- Bas (72 h, time 3 day): 0%
- Eos (72 h, time 3 day): 1.4%
- Fbg (72 h, time 3 day): 223.4 mg/dL
- Hb (72 h, time 3 day): 14 g/dL
- Ht (72 h, time 3 day): 41.5%
- Lym (72 h, time 3 day): 78%
- MCH (72 h, time 3 day): 20.9 pg
- MCHC (72 h, time 3 day): 33.7%
- MCV (72 h, time 3 day): 62.1 fL
- Mono (72 h, time 3 day): 5.6%
- Neu (72 h, time 3 day): 15.8%
- PT (72 h, time 3 day): 11.3 s
- Plat (72 h, time 3 day): 129.6 x10_4/uL
- RBC (72 h, time 3 day): 669.2 x10_4/ul
- Ret (72 h, time 3 day): 5.5%
- WBC (72 h, time 3 day): 91 x10_2/uL
- KIDNEY_L (72 h, time 3 day): 1 g
- KIDNEY_R (72 h, time 3 day): 1 g
- KIDNEY_TOTAL (72 h, time 3 day): 2 g
- LIVER (72 h, time 3 day): 10.5 g
- A/G (72 h, time 3 day): 2.3
- ALP (72 h, time 3 day): 775 IU/L
- ALT (72 h, time 3 day): 32 IU/L
- AST (72 h, time 3 day): 61 IU/L
- BUN (72 h, time 3 day): 16.8 mg/dL
- CRE (72 h, time 3 day): 0.5 mg/dL
- Ca (72 h, time 3 day): 10.7 mg/dL
- Cl (72 h, time 3 day): 103.6 meq/L
- DBIL (72 h, time 3 day): 0.022 mg/dL
- GLC (72 h, time 3 day): 206 mg/dL
- IP (72 h, time 3 day): 8.2 mg/dL
- K (72 h, time 3 day): 4.7 meq/L
- LDH (72 h, time 3 day): 95.2 IU/L
- Na (72 h, time 3 day): 140 meq/L
- PL (72 h, time 3 day): 146.4 mg/dL
- RALB (72 h, time 3 day): 4 g/dL
- TBIL (72 h, time 3 day): 0.3 mg/dL
- TC (72 h, time 3 day): 77.6 mg/dL
- TG (72 h, time 3 day): 124.4 mg/dL
- TP (72 h, time 3 day): 5.7 g/dL
- gamma-GTP (72 h, time 3 day): 1.4 IU/L
- TERMINAL_BW ([…], time 7 day): 252.2 g
- TERMINAL_BW ([…], time 14 day): 307.3 g
- TERMINAL_BW ([…], time 28 day): 369.5 g
- APTT ([…], time 7 day): 18.2 s
- Bas ([…], time 7 day): 0%
- Eos ([…], time 7 day): 1%
- Fbg ([…], time 7 day): 216.8 mg/dL
- Hb ([…], time 7 day): 14.1 g/dL
- Ht ([…], time 7 day): 41.6%
- Lym ([…], time 7 day): 71%
- MCH ([…], time 7 day): 20.7 pg
- MCHC ([…], time 7 day): 33.8%
- MCV ([…], time 7 day): 61.1 fL
- Mono ([…], time 7 day): 6.4%
- Neu ([…], time 7 day): 21.8%
- PT ([…], time 7 day): 11.5 s
- Plat ([…], time 7 day): 110.2 x10_4/uL
- RBC ([…], time 7 day): 680.2 x10_4/ul
- Ret ([…], time 7 day): 5.4%
- WBC ([…], time 7 day): 93.3 x10_2/uL
- APTT ([…], time 14 day): 16.8 s
- Bas ([…], time 14 day): 0%
- Eos ([…], time 14 day): 0.8%
- Fbg ([…], time 14 day): 217.6 mg/dL
- Hb ([…], time 14 day): 15 g/dL
- Ht ([…], time 14 day): 45%
- Lym ([…], time 14 day): 82.8%
- MCH ([…], time 14 day): 20.4 pg
- MCHC ([…], time 14 day): 33.3%
- MCV ([…], time 14 day): 61.2 fL
- Mono ([…], time 14 day): 5%
- Neu ([…], time 14 day): 11.4%
- PT ([…], time 14 day): 11.5 s
- Plat ([…], time 14 day): 112.1 x10_4/uL
- RBC ([…], time 14 day): 737 x10_4/ul
- Ret ([…], time 14 day): 4.1%
- WBC ([…], time 14 day): 125 x10_2/uL
- APTT ([…], time 28 day): 16.3 s
- Bas ([…], time 28 day): 0%
- Eos ([…], time 28 day): 1.6%
- Fbg ([…], time 28 day): 210.6 mg/dL
- Hb ([…], time 28 day): 15.5 g/dL
- Ht ([…], time 28 day): 46.4%
- Lym ([…], time 28 day): 70.4%
- MCH ([…], time 28 day): 19.2 pg
- MCHC ([…], time 28 day): 33.5%
- MCV ([…], time 28 day): 57.2 fL
- Mono ([…], time 28 day): 7.6%
- Neu ([…], time 28 day): 20.6%
- PT ([…], time 28 day): 11.4 s
- Plat ([…], time 28 day): 106.5 x10_4/uL
- RBC ([…], time 28 day): 813.2 x10_4/ul
- Ret ([…], time 28 day): 6%
- WBC ([…], time 28 day): 123.4 x10_2/uL
- KIDNEY_L ([…], time 7 day): 1.1 g
- KIDNEY_R ([…], time 7 day): 1.1 g
- KIDNEY_TOTAL ([…], time 7 day): 2.1 g
- KIDNEY_L ([…], time 14 day): 1.2 g
- KIDNEY_R ([…], time 14 day): 1.2 g
- KIDNEY_TOTAL ([…], time 14 day): 2.5 g
- KIDNEY_L ([…], time 28 day): 1.3 g
- KIDNEY_R ([…], time 28 day): 1.3 g
- KIDNEY_TOTAL ([…], time 28 day): 2.7 g
- LIVER ([…], time 7 day): 11.7 g
- LIVER ([…], time 14 day): 13.6 g
- LIVER ([…], time 28 day): 15 g
- A/G ([…], time 7 day): 2.4
- ALP ([…], time 7 day): 842.2 IU/L
- ALT ([…], time 7 day): 32.6 IU/L
- AST ([…], time 7 day): 63 IU/L
- BUN ([…], time 7 day): 17 mg/dL
- CRE ([…], time 7 day): 0.5 mg/dL
- Ca ([…], time 7 day): 10.6 mg/dL
- Cl ([…], time 7 day): 103.8 meq/L
- DBIL ([…], time 7 day): 0 mg/dL
- GLC ([…], time 7 day): 206.8 mg/dL
- IP ([…], time 7 day): 8.1 mg/dL
- K ([…], time 7 day): 4.4 meq/L
- LDH ([…], time 7 day): 92.2 IU/L
- Na ([…], time 7 day): 141.2 meq/L
- PL ([…], time 7 day): 145.6 mg/dL
- RALB ([…], time 7 day): 4.1 g/dL
- TBIL ([…], time 7 day): 0.3 mg/dL
- TC ([…], time 7 day): 68.2 mg/dL
- TG ([…], time 7 day): 99.6 mg/dL
- TP ([…], time 7 day): 5.9 g/dL
- gamma-GTP ([…], time 7 day): 1.4 IU/L
- A/G ([…], time 14 day): 1.9
- ALP ([…], time 14 day): 806.4 IU/L
- ALT ([…], time 14 day): 37.8 IU/L
- AST ([…], time 14 day): 71.4 IU/L
- BUN ([…], time 14 day): 18.6 mg/dL
- CRE ([…], time 14 day): 0.6 mg/dL
- Ca ([…], time 14 day): 10.8 mg/dL
- Cl ([…], time 14 day): 104.2 meq/L
- DBIL ([…], time 14 day): 0.05 mg/dL
- GLC ([…], time 14 day): 207.2 mg/dL
- IP ([…], time 14 day): 7.9 mg/dL
- K ([…], time 14 day): 4.5 meq/L
- LDH ([…], time 14 day): 121.4 IU/L
- Na ([…], time 14 day): 141.6 meq/L
- PL ([…], time 14 day): 160.8 mg/dL
- RALB ([…], time 14 day): 3.9 g/dL
- TBIL ([…], time 14 day): 0.3 mg/dL
- TC ([…], time 14 day): 78.8 mg/dL
- TG ([…], time 14 day): 143 mg/dL
- TP ([…], time 14 day): 6 g/dL
- gamma-GTP ([…], time 14 day): 1 IU/L
- A/G ([…], time 28 day): 1.8
- ALP ([…], time 28 day): 599.4 IU/L
- ALT ([…], time 28 day): 34.6 IU/L
- AST ([…], time 28 day): 66.6 IU/L
- BUN ([…], time 28 day): 19.6 mg/dL
- CRE ([…], time 28 day): 0.6 mg/dL
- Ca ([…], time 28 day): 10.3 mg/dL
- Cl ([…], time 28 day): 107 meq/L
- DBIL ([…], time 28 day): 0.006 mg/dL
- GLC ([…], time 28 day): 213.6 mg/dL
- IP ([…], time 28 day): 6.2 mg/dL
- K ([…], time 28 day): 4.5 meq/L
- LDH ([…], time 28 day): 89.6 IU/L
- Na ([…], time 28 day): 140.4 meq/L
- PL ([…], time 28 day): 153.6 mg/dL
- RALB ([…], time 28 day): 3.9 g/dL
- TBIL ([…], time 28 day): 0.3 mg/dL
- TC ([…], time 28 day): 73.2 mg/dL
- TG ([…], time 28 day): 173.4 mg/dL
- TP ([…], time 28 day): 6.1 g/dL
- gamma-GTP ([…], time 28 day): 1.4 IU/L
